We go through 17 molecules from US5317103A, “Indole-substituted five-membered heteroaromatic compounds as 5-HT1 agonists” (Merck Sharp & Dohme Limited, priority 1992, dated 1994).

Molecules are shown by their SMILES.

For one assay, the target named is T1, 5-HT1 -like receptor (Oryctolagus cuniculus, UniProt P49144).
T1 construct: contraction of the saphenous vein of New Zealand White rabbits; from tissue; host or cells: saphenous vein of New Zealand White rabbits
T1 sequence (P49144 whole entry): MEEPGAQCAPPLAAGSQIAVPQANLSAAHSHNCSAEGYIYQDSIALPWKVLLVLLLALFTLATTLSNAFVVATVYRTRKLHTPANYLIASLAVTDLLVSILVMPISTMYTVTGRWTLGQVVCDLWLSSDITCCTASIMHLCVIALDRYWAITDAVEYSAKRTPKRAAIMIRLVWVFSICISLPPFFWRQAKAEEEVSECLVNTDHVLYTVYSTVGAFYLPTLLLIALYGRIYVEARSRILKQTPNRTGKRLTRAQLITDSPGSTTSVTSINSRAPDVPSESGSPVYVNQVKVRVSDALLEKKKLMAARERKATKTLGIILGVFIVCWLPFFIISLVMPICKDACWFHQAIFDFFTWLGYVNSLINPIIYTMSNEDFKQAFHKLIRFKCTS
Kind of assay: agonist-mediated contraction of the saphenous vein of New Zealand White rabbits. The class given is cell-based.
Details: not given
The protocol:
The activity of test compounds as agonists of the 5-HT1 -like receptor was measured in terms of their ability to mediate contraction of the saphenous vein of New Zealand White rabbits, using the procedure described in Arch. Pharm., 1990, 342, 111. Agonist potencies were calculated as -log10 EC50 (pEC50) values, from plots of percentage 5-HT (1 μm) response against the concentration of the agonist.
As to `NCCc1c[nH]c2ccc(-c3nc(Cc4ccccc4)no3)cc12` [Example 1, 2-[5-(5-(3-Benzyl-1,2,4-oxadiazol)-yl)-1H-indol-3-yl]ethylamine], the concentration giving a half-maximal response (EC50) was ≤ 10 µM. For the molecule `CN(C)CCc1c[nH]c2ccc(-c3nc(N)no3)cc12` [Example 49, N,N-Dimethyl-2-[5-(5-(3-amino-1,2,4-oxadiazol)yl)-1H-indol-3yl]ethylamine], the EC50 was ≤ 10 µM. Regarding `CC(=O)Nc1ccc(Cc2noc(-c3ccc4[nH]cc(CCN(C)C)c4c3)n2)cc1` [Example 27, N,N-Dimethyl-2-[5-[5-(3-(4-Acetylaminobenzyl)-1,2,4-oxadiazol)yl]-1H-indol-3-yl]ethylamine], the EC50 is ≤ 10 µM.

As to `CN(C)CCc1c[nH]c2ccc(-c3nc(Cc4ccc(NC(N)=O)cc4)no3)cc12` [Example 52, N,N-Dimethyl-2[5-(5-(3-(4-carbamoylaminobenzyl)-1,2,4-oxadiazol)yl)-1H-indol-3-yl]ethylamine], the EC50 is ≤ 10 µM.

Take `CN(C)CCc1c[nH]c2ccc(-c3nc(CCNS(C)(=O)=O)no3)cc12` [Example 56, N,N-dimethyl-2-[5-(5-(3-(2-methylsulphonylamino)ethyl-1,2,4-oxadiazol)yl)-1H-indol-3-yl]ethylamine]: the EC50 was ≤ 10 µM. As to `CN(C)CCc1c[nH]c2ccc(Cc3nc(CNC(=O)c4ccccc4)no3)cc12` [Example 88, N,N-Dimethyl-2-[5-(5-(3-phenylcarboxamidomethyl-1,2,4-oxadiazol)ylmethyl)-1H-indol-3-yl]ethylamine], the EC50 was ≤ 10 µM. On the same count and under the same terms, the figure for `CN(C)CCc1c[nH]c2ccc(Cc3nc(N4CCN(C(=O)OC(C)(C)C)CC4)no3)cc12` [Example 93, N,N-Dimethyl-2-[5-(5-(3-(4-^t-butyloxycarbonyl)piperazine-1,4-yl-1,2,4-oxadiazol)ylmethyl)-1H-indol-3-yl]ethylamine] is ≤ 10 µM; for `NCCc1c[nH]c2ccc(Cc3nc(N)no3)cc12` [Example 6] it is ≤ 10 µM. The same measure, in the same setting: the figure for `NCCc1c[nH]c2ccc(Cc3nc(Cc4ccccc4)no3)cc12` [Example 4] is ≤ 10 µM; for `CN(C)CCc1c[nH]c2ccc(-c3nc(CCNC(=O)OC(C)(C)C)no3)cc12` [Example 53, N,N-dimethyl-2-[5-(5-(3-(2-t-butyloxycarbonylamino)ethyl-1,2,4-oxadiazol)yl)-1H-indol-3-yl]ethylamine] it is ≤ 10 µM; for `NCCc1c[nH]c2ccc(-c3nc(Cc4ccc(NC(N)=O)cc4)no3)cc12` [Example 44, 2-[5-(5-(3-(4-Carbamoylaminobenzyl)-1,2,4-oxadiazol)yl)-1H-indol-3-yl]ethylamine] it is ≤ 10 µM. The same measure, in the same setting: the figure for `CN(C)CCc1c[nH]c2ccc(Cc3nc(N)no3)cc12` [Example 30, N,N-Dimethyl-2-[5-[5-(3-Amino-1,2,4-oxadiazol)ylmethyl]-1H-indol-3-yl]ethylamine] is ≤ 10 µM; for `NCCc1c[nH]c2ccc(-c3nc(N)no3)cc12` [Example 45, 2-[5-(5-(3-Amino-1,2,4-oxadiazol)-yl)-1H-indol-3-yl]ethylamine] it is ≤ 10 µM; for `CNS(=O)(=O)c1ccc(Cc2noc(Cc3ccc4[nH]cc(CCN(C)C)c4c3)n2)cc1` [Example 65, N,N-Dimethyl-2-[5-(5-(3-(4-methylaminosulphonylbenzyl)-1,2,4-oxadiazol)ylmethyl)-1H-indol-3-yl]ethylamine] it is ≤ 10 µM.

Staying with this assay, now noted: rabbit saphenous vein contraction; from plots of percentage 5-HT (1 μm) response against agonist concentration.
In the case of `CN(C)CCc1c[nH]c2ccc(-c3nc(Cc4ccc(NS(C)(=O)=O)cc4)no3)cc12` [Example 28, N,N-Dimethyl-2-[5-[5-(3-(4-Methylsulphonylaminobenzyl)-1,2,4-oxadiazol)yl]-1H-indol-3-yl]ethyl amine], the “agonist potency -log10 EC50 (pEC50)” value is recorded as “not less than 5.0”. In the case of `CN(C)CCc1c[nH]c2ccc(CCc3nc(N)no3)cc12` [Example 61, N,N-Dimethyl-2-[5-(2-(5-(3-amino-1,2,4-oxadiazol)yl)ethyl)-1H-indol-3-yl]ethylamine], the “agonist potency -log10 EC50 (pEC50)” value was “not less than 5.0”.

The same assay, now with this note: rabbit saphenous vein contraction; from plots of percentage 5-HT (1 μm) response against agonist concentration; read-out: agonist potency -log10 EC50 (pEC50) (converted).
With `CN1CCC(c2c[nH]c3ccc(Cc4nc(N)no4)cc23)CC1` [Example 110, 4-[5-(3-Amino-1,2,4-oxadiazol-5-ylmethyl)-1H-indol-3-yl]N-methylpiperidine], the EC50 was ≤ 10 µM.

In general, EC50 refers to the midpoint of the concentration-response curve.
